Reference: patent publication US11950925B2, “Managing fluid levels in a patient and associated devices, systems, and methods” (REPRIEVE CARDIOVASCULAR, INC., priority 2019, dated 2024)
Values joined by “and” are separate entries in the source; they are usually repeats but may differ in a detail not shown here. Equal values may be shown once.

Experiments:
[1] = Fluid overload therapy with diuretic (Lasix) and hydration fluid via the Reprieve Cardiovascular Second Generation System: diuresis, fluid, sodium and weight outcomes; format: in vivo, human
Description: (§1) Clinical data associated with embodiments of the present technology were obtained from patient tests conducted at the Tbilisi Heart and Vascular Center in Tbilisi, Georgia. 15 patients underwent fluid therapy in which diuretic(s) and hydration fluid were administered via the Reprieve Cardiovascular™ Second Generation System according to the methods described herein (“treatment group”). As described below, data obtained from the tests indicate that the net fluid loss and net sodium loss levels achieved represent a significant improvement over conventional methods for treating fluid overload conditions, and generally indicate that embodiments of the present technology produce improved diuresis and renal safety.
Table 1 below indicates total urine output, net fluid loss (not including intake fluid), net fluid loss (including intake fluid), net sodium balance, and average diuretic (Lasix) dosage rate for each patient in the treatment group, as measured across a therapy timespan. […] Additionally, the average therapy timespan for the treatment group was 31 hours, whereas the average therapy timespan for standard of care therapy in the literature is approximately 5 days. […] Over the 30 days, none of the patients in the treatment group regained the weight that lost during therapy or were readmitted for additional treatment.
As also shown in Table 1, the average net sodium balance for all patients in the treatment group decreased by nearly 800 millimoles (mmol) over the therapy timespan. When normalized over a 24-hour period, the average and median net sodium balance was −14 grams (g) and −15 g respectively.

[2] = human, in vivo
Description: as §1
Estimated glomerular filtration rate (eGFR) is a measure of kidney function and stage of kidney disease, and is based on patient factors including blood creatinine and a patient's age, body size, and gender.
Blood pressure measurements of the patients in the treatment group serve as another indication that the fluid therapy was well received by the patients. For example, the average mean arterial pressure (MAP) of patients dropped from 90.1 mmHg to 88.2 mmHg at the time of patient discharge, and then to 87.2 mmHg after 30 days. Additionally, average systolic pressure of the patients dropped from 121 mmHg to 119 mmHg at the time of patient discharge, and then to 117 mmHg after 30 days.

[3] = average of 15 treatment group patients, average therapy timespan 31 h
[4] = individual patient, over that patient's therapy timespan, Lasix plus hydration fluid
[5] = normalized over a 24-hour period

average decrease of eGFR [2]: 1.6
average increase in creatinine [2]: 0.11 mg/dL
SMILES: NS(=O)(=O)c1cc(C(=O)O)c(NCc2ccco2)cc1Cl [Lasix, Furosemide]
decrease of average net sodium balance ([1]; all treatment group patients, over the therapy timespan): ~800 mmol
Net Fluid Loss (including oral fluid intake), average [1, 3]: −5,919 ml
Net Fluid Loss (not including oral fluid intake), average [1, 3]: −6,948 ml
Total Urine, average [1, 3]: 12,744 ml
Net Fluid Loss (including oral fluid intake) [1, 4]: −4,868 ml and −4,247 ml and −2,232 ml and −10,787 ml and −1,021 ml and −6,276 ml and −5,625 ml and −3,636 ml and −10,299 ml and −3,724 ml and −9,156 ml and −6,583 ml and −6,186 ml and −10,301 ml and −3,844 ml
Net Fluid Loss (not including oral fluid intake) [1, 4]: −6,001 ml and −4,590 ml and −2,993 ml and −11,913 ml and −2,003 ml and −8,306 ml and −6,941 ml and −3,953 ml and −12,269 ml and −4,364 ml and −9,995 ml and −7,888 ml and −7,018 ml and −11,333 ml and −4,704 ml
Total Urine [1, 4]: 14,158 ml and 11,456 ml and 6,329 ml and 19,728 ml and 3,726 ml and 12,966 ml and 12,179 ml and 6,496 ml and 20,184 ml and 8,328 ml and 17,784 ml and 14,629 ml and 12,930 ml and 21,155 ml and 9,162 ml
average net fluid loss [1, 5]: approximately 5.4 L
average net sodium balance [1, 5]: -14 g
median net sodium balance [1, 5]: -15 g
increase in net fluid loss relative to control group ([1]; treatment group vs conventional therapy (diuretic, no replacement hydration fluid), normalized 24-hour period): over 200%
average weight loss ([1]; treatment group, after 30 days): 5.7 kg
average weight loss ([1]; treatment group, at the time of patient discharge): 6.8 kg
average net fluid loss (not including oral fluid intake) ([1]; treatment group, over an average therapy timespan of 31 hours): ~7 L
patients who regained the weight lost during therapy or were readmitted for additional treatment ([1]; treatment group, over the 30 days): none
tolerability of the fluid therapy [2]: generally well tolerated
